The record followed here is patent publication US20140206735A1, “HIGH DOSAGE TOPICAL METRONIDAZOLE AQUEOUS-BASED GEL FORMULATIONS AND THEIR USE TO TREAT ROSACEA” (Medicis Pharmaceutical Corporation, priority 2012, published 2014).

The data set is described as follows: Saturated MTZ solubility at 25° C. in solvents and solvent mixtures. It is filed as physicochemical.
[1] abbreviates: MTZ in Phosphate buffer, 50 mM, pH 4.
Setting [2] is: MTZ in Phosphate buffer, 50 mM, pH 6.

`Cc1ncc([N+](=O)[O-])n1CCO` [MTZ, 2-(2-methyl-5-nitro-1H-imidazol-1-yl)ethanol]: the “Solubility at 25° C. (n = 3, mean ± SEM)” value is, setting by setting: (MTZ in 1 wt % aq. polysorbate 60) 9.72 ± 0.08 mg/g; (MTZ in 2 wt % aq. Benzyl alcohol) 10.81 ± 0.040 mg/g; (MTZ in 10 wt % aq. Lutrol F127) 9.15 ± 0.09 mg/g; (MTZ in 50 wt % aq. glycerol) 7.62 ± 0.19 mg/g; (MTZ in Deionized water) 8.70 ± 0.09 mg/g; (MTZ in Ethanol) 16.36 ± 0.12 mg/g. The “Solubility at 25° C. (n = 3, mean ± SEM)” value is, setting by setting: (MTZ in PEG 400) 18.79 ± 1.23 mg/g; under setting [1], 8.26 ± 0.45 mg/g; under setting [2], 8.57 ± 0.05 mg/g; (MTZ in Propylene glycol) 18.62 ± 0.25 mg/g. Further, the “Solubility at 25° C. (n = 1)” value is, setting by setting: (MTZ in Ethanol) 19.96 mg/g; (MTZ in Ethylene glycol) 21.34 mg/g; (MTZ in Glycerol) 8.35 mg/g; (MTZ in PEG 400) 24.78 mg/g; under setting [1], 9.09 mg/g; (MTZ in Phosphate buffer, 50 mM, pH 5) 9.13 mg/g. Also, the “Solubility at 25° C. (n = 1)” value runs as follows: under setting [2], 9.10 mg/g; (MTZ in Phosphate buffer, 50 mM, pH 7) 9.07 mg/g; (MTZ in Propylene glycol) 20.74 mg/g; (MTZ in tetraglycol) 29.65 mg/g. Moreover, the “saturated MTZ solubility at 25° C.” value (in certain alcohols (ethanol, benzyl alcohol), diols (ethylene glycol, propylene glycol), polyethers (PEG 400)) is “at least 20 mg/g”.
